The text below walks through data of patent US9982016B2, “NPR-B agonists” (priority 2009, dated 2018).

The target of test [1] is T1, NPR-B (Homo sapiens, UniProt P20594).
T1 construct: endogenously NPR-B expressing GTM-3 cells; endogenous in cells; host or cells: GTM-3 (human glaucoma trabecular meshwork cells)
T1 sequence (P20594 23-1047): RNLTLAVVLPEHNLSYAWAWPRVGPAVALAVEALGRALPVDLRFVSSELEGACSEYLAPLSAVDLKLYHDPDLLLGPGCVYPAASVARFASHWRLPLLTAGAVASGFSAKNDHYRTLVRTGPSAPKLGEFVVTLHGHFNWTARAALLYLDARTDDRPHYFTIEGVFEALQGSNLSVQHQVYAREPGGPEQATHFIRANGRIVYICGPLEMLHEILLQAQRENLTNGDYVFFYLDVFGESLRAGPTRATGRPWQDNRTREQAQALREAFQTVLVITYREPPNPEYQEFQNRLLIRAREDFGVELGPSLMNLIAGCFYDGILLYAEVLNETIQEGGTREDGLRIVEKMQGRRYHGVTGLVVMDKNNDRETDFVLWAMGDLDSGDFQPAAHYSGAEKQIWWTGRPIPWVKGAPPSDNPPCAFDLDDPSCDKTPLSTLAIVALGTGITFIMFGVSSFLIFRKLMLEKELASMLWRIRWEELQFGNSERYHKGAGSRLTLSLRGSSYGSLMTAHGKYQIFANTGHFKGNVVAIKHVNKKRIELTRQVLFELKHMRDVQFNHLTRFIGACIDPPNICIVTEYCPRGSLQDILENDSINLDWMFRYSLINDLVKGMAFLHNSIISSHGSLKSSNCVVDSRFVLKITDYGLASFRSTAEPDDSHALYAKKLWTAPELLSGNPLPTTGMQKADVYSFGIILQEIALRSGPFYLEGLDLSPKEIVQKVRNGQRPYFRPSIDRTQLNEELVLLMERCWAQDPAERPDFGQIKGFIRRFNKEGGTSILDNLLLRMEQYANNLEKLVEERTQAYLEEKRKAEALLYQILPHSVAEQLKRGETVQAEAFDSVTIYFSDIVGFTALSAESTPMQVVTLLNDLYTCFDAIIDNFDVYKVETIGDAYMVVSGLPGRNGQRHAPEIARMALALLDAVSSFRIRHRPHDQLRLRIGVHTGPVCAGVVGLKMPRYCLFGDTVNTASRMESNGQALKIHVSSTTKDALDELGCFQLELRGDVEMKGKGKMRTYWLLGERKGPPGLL
Briefly: NPR-B induced production of cyclic GMP in human glaucoma trabecular meshwork cells (GTM-3). The format is cell-based.

The subject of test [2] is human colon adenocarcinoma cells. Particulars: 1 mM, within 24 h; cited from earlier work.
Test [3] has as its system human renal carcinoma cells. As to conditions: 100 μM; cited from earlier work.
Test [4] has as its system chondrocytes. As to conditions: low doses 10 to 100 pM, at the highest dose; cited from earlier work.
Setting [5] is: NPR-B activation in GTM-3 cells, group set by EC50 and Emax (CNP = 100%), read-out: Activity (group).

pEC50: −log10 of the molar value. Where two headings read alike, the source gives them in different places. Numbered stars: 1 amine (or outer) side, 2 acyl side, 3 side chain; on linkers, the order of the positions; unused ones are H or OH. Square brackets hold non-standard residues; d marks the D form. Peptide text beside a SMILES is read from it. * marks the point of attachment. Pro(4R-NH2) = N[C@H]1CN[C@H](C(=O)O)C1; X2 = O=C([C@H]1CCCN([*:1])C1)[*:2]; NMeR = CN[C@@H](CCCNC(=N)N)C(=O)O; X1 = CCCCCCCCN1CCC[C@H](C(=O)*)C1; dDap(Me2) = CN(C)C[C@@H](N)C(=O)O; Hyp = O=C(O)[C@@H]1C[C@@H](O)CN1; NMeF = CN[C@@H](Cc1ccccc1)C(=O)O; NMeL = CN[C@@H](CC(C)C)C(=O)O; Octanoyl = CCCCCCCC(=O)* Some results are limits rather than exact numbers.

As to `CCCCCCCC(=O)N1CCC[C@H](C(=O)N(C)[C@@H](Cc2ccccc2)C(=O)N[C@H](CN(C)C)C(=O)N[C@@H](CC(C)C)C(=O)N2C[C@H](O)C[C@H]2C(=O)N(C)[C@@H](CC(C)C)C(=O)N[C@@H](CC(=O)O)C(=O)N[C@@H](CCCNC(=N)N)C(=O)N[C@H](C(N)=O)[C@@H](C)CC)C1` [JAL-1579, Occ-Sni-Nmf-dap(Me2)-Leu-Hyp-Nml-Asp-Arg-Ile-NH2] (Octanoyl-[X2][NMeF][dDap(Me2)]L[Hyp][NMeL]DRI-NH2), the pEC50 in test [1] (setting [5]) is above 6.00.

In the case of `CC[C@H](C)[C@@H]1NC(=O)[C@H](CCCNC(=N)N)NC(=O)[C@H](CC(=O)O)NC(=O)[C@H](CCSC)NC(=O)[C@H](CCCNC(=N)N)NC(=O)CNC(=O)CNC(=O)[C@H](Cc2ccccc2)NC(=O)[C@H](Cc2c[nH]cn2)NC(=O)[C@@H](NC(=O)[C@@H](N)CCSC)CSSC[C@@H](C(=O)N[C@@H](Cc2ccc(O)cc2)C(=O)N[C@@H](CCCNC(=N)N)C(N)=O)NC(=O)[C@H](CO)NC1=O` [mini-ANP, reference compound] (HELM PEPTIDE1{M.C.H.F.G.G.R.M.D.R.I.S.C.Y.R.[am]}$PEPTIDE1,PEPTIDE1,2:R3-13:R3$$$V2.0), the pEC50 in test [1] (GTM-3 cells, 4-Parameter Logistic Equation, highest concentration 45 μM, FIG. 2, read-out: EC50, cyclic GMP production in GTM-3 cells) was below 4.35.

In the case of `CCCCCCCC(=O)N1CCC[C@H](C(=O)N[C@@H](Cc2ccccc2)C(=O)N[C@H](CN(C)C)C(=O)N[C@@H](CC(C)C)C(=O)N2C[C@H](O)C[C@H]2C(=O)N(C)[C@@H](CC(C)C)C(=O)N[C@@H](CC(=O)O)C(=O)N(C)[C@@H](CCCNC(=N)N)C(=O)N[C@H](C(N)=O)[C@@H](C)CC)C1` [JAL-1576, Occ-Sni-Phe-dap(Me2)-Leu-Hyp-Nml-Asp-Nmr-Ile-NH2] (Octanoyl-[X2]F[dDap(Me2)]L[Hyp][NMeL]D[NMeR]I-NH2), in test [1] (setting [5]), the pEC50 was above 6.00.

`CCCCCCCC(=O)N[C@H](C)C(=O)N[C@@H](Cc1ccccc1)C(=O)N[C@H](CC(C)C)C(=O)N[C@@H](CC(C)C)C(=O)N1C[C@H](O)C[C@H]1C(=O)N(C)[C@@H](CC(C)C)C(=O)N[C@@H](C(=O)N[C@@H](CCCNC(=N)N)C(=O)N[C@H](C(N)=O)[C@@H](C)CC)c1cccs1` [JAL-1558, Occ-ala-Phe-leu-Leu-Hyp-Nml-(BB727)-Arg-Ile-NH2] (HELM PEPTIDE1{[CCCCCCCC(=O)[*:2]].[dA].F.[dL].L.[Hyp].[meL].[O=C([C@H](N[*:1])c1cccs1)[*:2]].R.I.[am]}$$$$V2.0): the pEC50 in test [1] (setting [5]) was above 6.00.

For `CCCCCCCC(=O)N1CCC[C@H](C(=O)N[C@@H](Cc2ccccc2)C(=O)N[C@H](CN(C)C)C(=O)N[C@@H](CC(C)C)C(=O)N2C[C@H](O)C[C@H]2C(=O)N(C)[C@@H](CC(C)C)C(=O)N[C@@H](CC(=O)O)C(=O)N2CCC[C@H]2C(=O)N[C@H](C(N)=O)[C@@H](C)CC)C1` [JAL-1580, Occ-Sni-Phe-dap(Me2)-Leu-Hyp-Nml-Asp-Pro-Ile-NH2] (Octanoyl-[X2]F[dDap(Me2)]L[Hyp][NMeL]DPI-NH2), in test [1] (setting [5]), the pEC50 is above 6.00.

Take `CCCCCCCCN1CCC[C@H](C(=O)N[C@@H](Cc2ccccc2)C(=O)N[C@H](CN(C)C)C(=O)N[C@@H](CC(C)C)C(=O)N2C[C@H](N)C[C@H]2C(=O)N(C)[C@@H](CC(C)C)C(=O)N[C@@H](CC(=O)O)C(=O)N[C@@H](CCCNC(=N)N)C(=O)N[C@H](C(N)=O)[C@@H](C)CC)C1` [JAL-1369, Oct-Sni-Phe-dap(Me2)-Leu-Tap-Nml-Asp-Arg-Ile-NH2] (X1-F[dDap(Me2)]L[Pro(4R-NH2)][NMeL]DRI-NH2): in test [1] (setting [5]), the pEC50 is above 6.00.

For the compound `CC[C@H](C)[C@@H]1NC(=O)[C@H](CCCNC(=N)N)NC(=O)[C@H](CC(=O)O)NC(=O)[C@H](CCSC)NC(=O)[C@H](CCCNC(=N)N)NC(=O)CNC(=O)CNC(=O)[C@H](Cc2ccccc2)NC(=O)[C@@H](NC(=O)[C@H](CO)NC(=O)[C@H](CO)NC(=O)[C@H](CCCNC(=N)N)NC(=O)[C@H](CCCNC(=N)N)NC(=O)[C@H](CC(C)C)NC(=O)[C@@H](N)CO)CSSC[C@@H](C(=O)N[C@@H](CC(N)=O)C(=O)N[C@@H](CO)C(=O)N[C@@H](Cc2ccccc2)C(=O)N[C@@H](CCCNC(=N)N)C(=O)N[C@@H](Cc2ccc(O)cc2)C(=O)O)NC(=O)CNC(=O)[C@H](CC(C)C)NC(=O)CNC(=O)[C@H](CO)NC(=O)[C@H](CCC(N)=O)NC(=O)[C@H](C)NC(=O)CNC1=O` [ANP, atrial natriuretic peptide], the “decrease in cell number” value in test [2] is “up to 97%”.

For `CC[C@H](C)[C@@H]1NC(=O)[C@H](CCCNC(=N)N)NC(=O)[C@H](CC(=O)O)NC(=O)[C@H](CC(C)C)NC(=O)[C@H](CCCCN)NC(=O)[C@H](CC(C)C)NC(=O)CNC(=O)[C@H](Cc2ccccc2)NC(=O)[C@@H](NC(=O)CNC(=O)[C@H](CCCCN)NC(=O)[C@H](CO)NC(=O)[C@H](CC(C)C)NC(=O)CN)CSSC[C@@H](C(=O)O)NC(=O)CNC(=O)[C@H](CC(C)C)NC(=O)CNC(=O)[C@H](CO)NC(=O)[C@H](CCSC)NC(=O)[C@H](CO)NC(=O)CNC1=O` [CNP, C-type natriuretic peptide], the “decrease in cell number” value in test [3] is on record as 10%. The “increase in cellularity (chondrocyte proliferation)” value in test [4] was “up to 43%”.

Turning to `CCCCCCCCN1CCC[C@H](C(=O)N[C@@H](Cc2ccccc2)C(=O)N[C@H](CN(C)C)C(=O)N[C@@H](CC(C)C)C(=O)N2C[C@H](O)C[C@H]2C(=O)N(C)[C@@H](CC(C)C)C(=O)N[C@@H](CC(=O)O)C(=O)N[C@@H](CCCNC(=N)N)C(=O)N[C@H](C(N)=O)[C@@H](C)CC)C1` [JAL-1429, Oct-Sni-Phe-dap(Me2)-Leu-Hyp-Nml-Asp-Arg-Ile-NH2] (HELM PEPTIDE1{[CCCCCCCCN1CCC[C@H](C(=O)[*:2])C1].F.[CN(C)C[C@@H](N[*:1])C(=O)[*:2]].L.[Hyp].[meL].D.R.I.[am]}$$$$V2.0), in test [1] (setting [5]), the pEC50 is above 6.00.
